From patent US10577395B2 (priority 2014, dated 2020)
Converted amounts (≈) assume the structure as drawn. Read-outs that look alike come from different tables or passages of the source.

Assays:
[1] = system: vancomycin-sensitive Staphylococcus aureus (VSSA strain ATCC 25923); test: Antimicrobial assay, MIC, vancomycin-sensitive S. aureus; assay type: cell-based; settings: ATCC 25923; for MIC: Staphylococcus aureus
Procedure: (§1) Assays were carried out following the methods of Clinical and Laboratory Standards Institute; Methods for Dilution Antimicrobial Susceptibility Tests for Bacteria That Grow Aerobically; Approved Standard, […].; CLSI document M07-A8; Clinical and Laboratory Standards Institute: Wayne, Pa., 2009.
(§2) This diluted bacterial stock solution was then inoculated into a well of a V-shaped 96-well glass coated microtiter plate, supplemented with serial diluted aliquots of the antibiotic solution DMSO (4 μL), to achieve a total assay volume of 0.1 mL. The plate was then incubated at 37° C. for 18 hours, after which minimal inhibitory concentrations (MICs) were determined by monitoring the cell growth (observed as a pellet) in the wells. The lowest concentration of antibiotic (in μg/mL) capable of eliminating the cell growth in the wells is reported as the MIC.

[2] = system: methicillin and oxacillin-resistant Staphylococcus aureus subsp. aureus (MRSA strain ATCC 43300); test: Antimicrobial assay, MIC, MRSA; assay type: cell-based; settings: for MIC: Staphylococcus aureus
Procedure: as §1, §2

[3] = system: Enterococcus faecium (VanA VRE, ATCC BAA-2317); test: Antimicrobial assay, MIC, VanA E. faecium; assay type: cell-based; settings: for MIC: Enterococcus faecium
Procedure: as §1, §2

[4] = system: vancomycin-resistant Enterococcus faecalis (VanA VRE, BM4166); test: microbe, parasite or virus in culture; assay type: cell-based; settings: for MIC: Enterococcus faecalis, VRE
Procedure: as §1, §2

[5] = system: vancomycin-resistant Enterococcus faecalis (VanB VRE, strain ATCC 51299); test: microbe, parasite or virus in culture; assay type: cell-based; settings: for MIC: Enterococcus faecalis
Procedure: as §1, §2

[6] = system: panel of Gram-positive bacteria (VSSA, MRSA, VanA and VanB VRE); test: Antimicrobial assay, MIC across the bacterial panel; assay type: cell-based, S. aureus, E. faecalis, E. faecium; settings: Staphylococcus aureus, read-out: MICs across the bacterial panel, vancomycin-sensitive and vancomycin-resistant strains
Procedure: as §1, §2

[7] = ATCC25923, read-out: MIC, sensitive S. aureus, serum concentration 10%, 10%
[8] = ATCC25923, read-out: MIC, sensitive S. aureus, serum concentration 100%, 100%
[9] = ATCC25923, 25%, read-out: MIC, sensitive S. aureus, serum concentration 25%
[10] = ATCC25923, read-out: MIC, sensitive S. aureus
[11] = read-out: MIC, MRSA S. aureus, serum concentration 10%
[12] = read-out: MIC, MRSA S. aureus, serum concentration 25%
[13] = read-out: MIC, MRSA S. aureus, serum concentration 100%
[14] = read-out: MIC, Van A E. faecium, serum concentration 10%
[15] = read-out: MIC, Van A E. faecium, serum concentration 25%
[16] = read-out: MIC, Van A E. faecium, serum concentration 100%
[17] = read-out: MIC, Van A E. faecalis, serum concentration 10%
[18] = read-out: MIC, Van A E. faecalis, serum concentration 25%
[19] = read-out: MIC, Van A E. faecalis, serum concentration 100%
[20] = read-out: MIC, VanA E. faecalis
[21] = read-out: MIC, Van B E. faecalis, serum concentration 10%
[22] = read-out: MIC, Van B E. faecalis, serum concentration 25%
[23] = read-out: MIC, Van B E. faecalis, serum concentration 100%
[24] = read-out: MIC, VanB E. faecalis

| SMILES | MIC [1, 7] [µg/mL] | MIC [1, 8] [µg/mL] | MIC [1, 9] [µg/mL] | MIC [1, 10] [µg/mL] | MIC ([2]; read-out: MIC, MRSA S. aureus) [µg/mL] | MIC [2, 11] [µg/mL] | MIC [2, 12] [µg/mL] | MIC [2, 13] [µg/mL] | MIC [3, 14] [µg/mL] | MIC [3, 15] [µg/mL] | MIC [3, 16] [µg/mL] | MIC ([3]; read-out: MIC, VanA E. faecium) [µg/mL] | MIC [4, 17] [µg/mL] | MIC [4, 18] [µg/mL] | MIC [4, 19] [µg/mL] | MIC [4, 20] [µg/mL] | MIC [5, 21] [µg/mL] | MIC [5, 22] [µg/mL] | MIC [5, 23] [µg/mL] | MIC [5, 24] [µg/mL] | further results |
| --- | --- | --- | --- | --- | --- | --- | --- | --- | --- | --- | --- | --- | --- | --- | --- | --- | --- | --- | --- | --- | --- |
| CN[C@H](CC(C)C)C(=O)N[C@H]1C(=O)N[C@@H](CC(N)=O)C(=O)N[C@H]2C(=S)NC3C(=O)N[C@H](C(=O)N[C@H](C(=O)O)c4cc(O)cc(O)c4-c4cc3ccc4O)[C@H](O)c3ccc(c(Cl)c3)Oc3cc2cc(c3OC2OC(CO)C(O)[C@H](O)[C@@H]2O[C@H]2CC(C)(N)[C@H](O)[C@H](C)O2)Oc2ccc(cc2Cl)[C@H]1O (stereo partly drawn) [Compound 2, [Ψ[C(═S)NH]Tpg^4]vancomycin] | > 32 | > 32 | > 32 | > 32 | > 32 | > 32 | > 32 | > 32 | > 32 | > 32 | > 32 | > 32 | > 32 | > 32 | > 32 | > 32 | > 32 | > 32 | > 32 | > 32 | MIC [6]: > 32 µg/mL |
| CN[C@H](CC(C)C)C(=O)N[C@H]1C(=O)N[C@@H](CC(N)=O)C(=O)N[C@H]2C(=N)NC3C(=O)N[C@H](C(=O)N[C@H](C(=O)O)c4cc(O)cc(O)c4-c4cc3ccc4O)[C@H](O)c3ccc(c(Cl)c3)Oc3cc2cc(c3OC2OC(CO)C(O)[C@H](O)[C@@H]2O[C@H]2CC(C)(N)[C@H](O)[C@H](C)O2)Oc2ccc(cc2Cl)[C@H]1O (stereo partly drawn) [Compound 3, [Ψ[C(═NH)NH]Tpg^4]vancomycin] |  |  |  |  |  |  |  |  | 0.5 (≈ 0.345 µM) | 4 (≈ 2.76 µM) | > 32 | 0.5 (≈ 0.345 µM) | 0.5 (≈ 0.345 µM) | 8 (≈ 5.52 µM) | > 32 | 0.5 (≈ 0.345 µM) |  |  |  |  |  |
| CN[C@H](CC(C)C)C(=O)N[C@H]1C(=O)N[C@@H](CC(N)=O)C(=O)N[C@H]2C(=S)NC3C(=O)N[C@H](C(=O)N[C@H](C(=O)O)c4cc(O)cc(O)c4-c4cc3ccc4O)[C@H](O)c3ccc(c(Cl)c3)Oc3cc2cc(c3OC2OC(CO)C(O)[C@H](O)[C@@H]2O[C@H]2CC(C)(NCc3ccc(-c4ccc(Cl)cc4)cc3)[C@H](O)[C@H](C)O2)Oc2ccc(cc2Cl)[C@H]1O (stereo partly drawn) [Compound 5, N-4-(4′-chlorobiphenyl)-methyl [Ψ[C(═S)NH]Tpg^4]vancomycin] | 2 (≈ 1.2 µM) | 4 (≈ 2.4 µM) | 2 (≈ 1.2 µM) | 2 (≈ 1.2 µM) | 2 (≈ 1.2 µM) | 2 (≈ 1.2 µM) | 4 (≈ 2.4 µM) | 4 (≈ 2.4 µM) | 4 (≈ 2.4 µM) | 4 (≈ 2.4 µM) | 8 (≈ 4.8 µM) | 4 (≈ 2.4 µM) | 4 (≈ 2.4 µM) | 4 (≈ 2.4 µM) | 8 (≈ 4.8 µM) | 4 (≈ 2.4 µM) | 2 (≈ 1.2 µM) | 2 (≈ 1.2 µM) | 8 (≈ 4.8 µM) | 2 (≈ 1.2 µM) | MIC [6]: 2 to 4 µg/mL (≈ 1.2 to 2.4 µM) |
| CN[C@H](CC(C)C)C(=O)N[C@H]1C(=O)N[C@@H](CC(N)=O)C(=O)N[C@H]2CNC3C(=O)N[C@H](C(=O)N[C@H](C(=O)O)c4cc(O)cc(O)c4-c4cc3ccc4O)[C@H](O)c3ccc(c(Cl)c3)Oc3cc2cc(c3OC2OC(CO)C(O)[C@H](O)[C@@H]2O[C@H]2CC(C)(N)[C@H](O)[C@H](C)O2)Oc2ccc(cc2Cl)[C@H]1O (stereo partly drawn) [Compound 16, [Ψ[CH2NH]Tpg^4]vancomycin] |  |  |  |  |  |  |  |  | 31 (≈ 21.6 µM) | 62 (≈ 43.2 µM) | 125 (≈ 87.1 µM) | 31 (≈ 21.6 µM) | 31 (≈ 21.6 µM) | 62 (≈ 43.2 µM) | 125 (≈ 87.1 µM) | 31 (≈ 21.6 µM) |  |  |  |  |  |
| CN[C@H](CC(C)C)C(=O)N[C@H]1C(=O)N[C@@H](CC(N)=O)C(=O)N[C@H]2C(=O)NC3C(=O)N[C@H](C(=O)N[C@H](CO)c4cc(O)cc(O)c4-c4cc3ccc4O)[C@H](O)c3ccc(c(Cl)c3)Oc3cc2cc(c3OC2OC(CO)C(O)[C@H](O)[C@@H]2O[C@H]2CC(C)(N)[C@H](O)[C@H](C)O2)Oc2ccc(cc2Cl)[C@H]1O (stereo partly drawn) [Compound 23, hydroxymethylvancomycin, reference compound] |  |  |  |  |  |  |  |  |  |  |  |  |  |  |  |  |  |  |  |  | MIC, sensitive S. aureus [1]: 0.5 µg/mL (≈ 0.348 µM); MIC, MRSA S. aureus ([2]; ATCC 43300): 0.5 µg/mL (≈ 0.348 µM); MIC, VanA E. faecium ([3]; ATCC BAA-2317): 250 µg/mL (≈ 174 µM); MIC, VanA E. faecalis ([4]; BM 4166): 250 µg/mL (≈ 174 µM); MIC, VanB E. faecalis ([5]; ATCC 51299): 8 µg/mL (≈ 5.57 µM) |
